The values below come from patent US20230301998A1, “METHODS AND COMPOSITIONS FOR INDUCTION OF ANTITUMOR IMMUNITY” (Sanford Burnham Prebys Medical Discovery Institute, priority 2020, published 2023).

The test system of test [1] is cGAS/STING pathway. Nature of the test: dsDNA (V70mer)-stimulated cGAS/STING signalling in B16 cells (qPCR, western blot). The format is cell-based, mouse. (Real-time PCR tracks product formation cycle by cycle.)
The target in test [2] is T1, PRMT5 (Homo sapiens, UniProt O14744).
T1 construct: endogenous in cells; host or cells: A375 and WM115 human melanoma cells
T1 sequence (O14744 whole entry): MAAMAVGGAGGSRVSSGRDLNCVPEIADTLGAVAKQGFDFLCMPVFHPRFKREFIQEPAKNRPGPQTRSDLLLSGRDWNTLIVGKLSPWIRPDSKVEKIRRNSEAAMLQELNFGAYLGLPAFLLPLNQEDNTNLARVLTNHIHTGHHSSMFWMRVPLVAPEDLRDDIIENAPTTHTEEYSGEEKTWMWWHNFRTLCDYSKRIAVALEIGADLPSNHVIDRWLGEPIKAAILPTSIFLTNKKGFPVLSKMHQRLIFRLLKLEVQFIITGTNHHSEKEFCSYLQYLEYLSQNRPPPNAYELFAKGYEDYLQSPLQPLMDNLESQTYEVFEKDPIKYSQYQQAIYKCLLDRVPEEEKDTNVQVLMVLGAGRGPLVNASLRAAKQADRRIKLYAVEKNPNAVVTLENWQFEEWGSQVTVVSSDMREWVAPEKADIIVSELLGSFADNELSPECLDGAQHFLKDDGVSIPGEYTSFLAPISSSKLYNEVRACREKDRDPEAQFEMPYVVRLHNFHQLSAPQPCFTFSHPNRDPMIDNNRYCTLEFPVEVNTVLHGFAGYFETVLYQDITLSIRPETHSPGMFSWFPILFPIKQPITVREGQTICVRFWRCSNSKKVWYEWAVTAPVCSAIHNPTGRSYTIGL
T1 sequence (Q9BQA1 whole entry partner): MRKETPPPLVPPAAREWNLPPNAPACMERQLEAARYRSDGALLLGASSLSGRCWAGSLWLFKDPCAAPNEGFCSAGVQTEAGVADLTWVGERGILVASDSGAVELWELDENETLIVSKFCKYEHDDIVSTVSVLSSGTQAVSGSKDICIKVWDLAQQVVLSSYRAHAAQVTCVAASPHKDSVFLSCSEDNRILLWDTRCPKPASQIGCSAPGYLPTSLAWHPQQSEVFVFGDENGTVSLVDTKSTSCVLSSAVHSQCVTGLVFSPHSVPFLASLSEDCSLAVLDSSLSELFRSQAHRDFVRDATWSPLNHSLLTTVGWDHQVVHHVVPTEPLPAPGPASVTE
Nature of the test: IP/immunoblot of IFI16 Arg methylation and SHARPIN interaction in human melanoma cells after PRMT5 inhibition. The class given is cell-based. The procedure: Immunoblotting was performed using standard protocols. Melanoma cells were lysed by incubation in RIPA buffer [50 mM Tris-HC1, pH7.4, 1% (v/v) NP40, 0.1% (w/v) sodium deoxycholate, 0.1% (w/v) sodium dodecyl sulfate, 150 mM NaCl, 1mM EDTA, and protease and phosphatase inhibitor cocktails (Thermo Fisher Scientific)] and freeze-thawed 3 times. For immunoprecipitation HEK293T cells were lysed in 1% Triton X-100 buffer [50 mM Tris-HC1, pH7.4, 1% (v/v) Triton X-100, 150 mM NaCl, 1 mM EDTA, and protease and phosphatase inhibitor cocktails (Thermo Fisher Scientific)] and freeze-thawed 3 times. Lysates were then incubated overnight with indicated antibodies and then for 4 hr with protein A/G agarose beads (Santa Cruz Biotechnology) under gentle mixing. Proteins were eluted by addition of lysis buffer and boiled in Laemmli buffer before separation on SDS-PAGE and transfer to a PVDF membrane. Membranes were incubated for 1 h at room temperature with blocking solution [TBS (Tris-buffered Saline); 10 mM Tris-HC1, pH8.0, 150 mM NaCl)] containing 0.1% Tween 20 and 5% nonfat milk followed by incubation overnight at 4° C. with appropriate primary antibodies. Membranes were washed with TBS and incubated 1 h at room temperature with secondary antibody [Alexa 680-conjugated goat anti-rabbit, goat anti-mouse, donkey anti-goat (Life Technologies) or IRDye 800-conjugated goat anti-mouse (Rockland Immunochemicals)], or HRP-conjugated anti-mouse or anti-rabbit IgG antibodies. TidyBlot anti-rabbit secondary antibody (Bio-Rad) was used to detect immunoprecipitated proteins (SHARPIN). Blots were treated with HRP-conjugated antibodies and SuperSignal West Pico or Femto chemiluminescent substrate (ThermoFisher scientific). Protein bands were visualized and quantified using an Odyssey Infrared Imaging System (LiCor Biosciences) or ChemiDoc Imaging System (Bio-Rad). […] STING polymer was analyzed using BlueNative(BN) PAGE (3). […] STING dimers and polymers were detected using a STING antibody (D2P2F, Cell Signaling),Immunofluorescence

The target in test [3] is T2, PRMT5 (Mus musculus, UniProt Q8CIG8).
T2 construct: endogenous in cells; host or cells: B16F10 murine melanoma cells (ATCC)
T2 sequence (Q8CIG8 whole entry): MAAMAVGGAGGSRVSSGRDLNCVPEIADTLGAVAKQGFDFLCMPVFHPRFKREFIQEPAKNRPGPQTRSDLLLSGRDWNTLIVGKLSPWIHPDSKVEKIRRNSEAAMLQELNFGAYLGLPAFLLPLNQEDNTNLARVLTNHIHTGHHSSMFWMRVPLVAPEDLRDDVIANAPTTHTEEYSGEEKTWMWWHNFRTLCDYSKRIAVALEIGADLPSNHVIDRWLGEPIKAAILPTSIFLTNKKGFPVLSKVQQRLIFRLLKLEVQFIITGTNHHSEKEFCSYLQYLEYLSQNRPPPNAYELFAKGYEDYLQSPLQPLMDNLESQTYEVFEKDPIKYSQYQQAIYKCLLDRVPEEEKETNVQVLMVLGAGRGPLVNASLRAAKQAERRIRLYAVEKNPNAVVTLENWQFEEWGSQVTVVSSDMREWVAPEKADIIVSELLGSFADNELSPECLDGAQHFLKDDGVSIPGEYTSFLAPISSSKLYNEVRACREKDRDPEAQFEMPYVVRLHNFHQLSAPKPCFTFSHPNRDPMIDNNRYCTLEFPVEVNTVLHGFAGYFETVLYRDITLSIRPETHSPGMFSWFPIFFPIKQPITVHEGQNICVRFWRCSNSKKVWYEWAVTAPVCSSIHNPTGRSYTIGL
T2 sequence (Q99J09 whole entry partner): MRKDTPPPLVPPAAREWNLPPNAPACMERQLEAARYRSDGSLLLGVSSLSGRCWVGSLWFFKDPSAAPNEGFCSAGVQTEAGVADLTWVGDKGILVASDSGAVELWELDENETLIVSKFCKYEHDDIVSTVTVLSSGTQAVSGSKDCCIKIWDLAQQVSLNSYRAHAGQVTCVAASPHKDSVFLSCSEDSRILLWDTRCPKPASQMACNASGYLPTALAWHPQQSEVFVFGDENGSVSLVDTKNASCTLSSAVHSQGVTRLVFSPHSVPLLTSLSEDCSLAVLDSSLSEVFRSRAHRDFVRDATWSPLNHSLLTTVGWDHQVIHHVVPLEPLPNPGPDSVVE
Briefly: IP/immunoblot of IFI204 Arg methylation and SHARPIN interaction in B16 cells after PRMT5 inhibition. The class given is cell-based. The procedure:
Immunoblotting was performed using standard protocols. Melanoma cells were lysed by incubation in RIPA buffer [50 mM Tris-HC1, pH7.4, 1% (v/v) NP40, 0.1% (w/v) sodium deoxycholate, 0.1% (w/v) sodium dodecyl sulfate, 150 mM NaCl, 1mM EDTA, and protease and phosphatase inhibitor cocktails (Thermo Fisher Scientific)] and freeze-thawed 3 times. For immunoprecipitation HEK293T cells were lysed in 1% Triton X-100 buffer [50 mM Tris-HC1, pH7.4, 1% (v/v) Triton X-100, 150 mM NaCl, 1 mM EDTA, and protease and phosphatase inhibitor cocktails (Thermo Fisher Scientific)] and freeze-thawed 3 times. Lysates were then incubated overnight with indicated antibodies and then for 4 hr with protein A/G agarose beads (Santa Cruz Biotechnology) under gentle mixing. Proteins were eluted by addition of lysis buffer and boiled in Laemmli buffer before separation on SDS-PAGE and transfer to a PVDF membrane. […] Protein bands were visualized and quantified using an Odyssey Infrared Imaging System (LiCor Biosciences) or ChemiDoc Imaging System (Bio-Rad). […] STING polymer was analyzed using BlueNative(BN) PAGE (3). […] STING dimers and polymers were detected using a STING antibody (D2P2F, Cell Signaling),Immunofluorescence
On the technique in general: In western blotting, separated proteins are transferred to a membrane and probed.

Test [4] deals with YUMM1.7 cells. Briefly: YUMM1.7 syngeneic melanoma tumor model in C57BL/6 mice (tumor volume, response). The class given is in vivo, mouse. The note with it: for Non-responder / Responder: number of mice. The procedure:
Animal experiments. All animal experiments were conducted with approval of the Institutional Animal Care and Use Committee of Sanford Burnham Prebys Medical Discovery Institute (AUF#18-044). The murine melanoma lines B16F10, YUMM1.7 , and YUMMER1.7 were injected subcutaneously (2.0×10^5 cells of B16F10 or YUMM1.7; 4.0 ×10^5 cells of YUMMER1.7) into the lower right flank of 6-8-week-old male C57BL/6 (B16F10, YUMM1.7, YUMMER1.7) or Nod-Scid-Gamma (NSG) (B16F10, YUMMER1.7) mice. To induce transduced inducible shPRMT5, doxycycline (10 mg/ml, Fisher Bioreagents) was prepared in methylcellulose solution (0.5% hydroxylmethylcellulose, 0.2% Tween80) and administered to mice (0.2 ml, oral gavage, QD)Tumor sizes were monitored using calipers. At indicated time points, tumors were collected, 21 weighed and assessed for immune phenotypes using flow cytometry or immunofluorescence. To assess efficacy of immune checkpoint antibodies, mice were grafted with B16F10 or YUMM1.7 (2.0×10^5 cells, s.c.) cells and treated with 200 μg control IgG [rat IgG2a; BE0089 (BioXcell)], anti-CD152 (CTLA-4) [9H10 (BE0131, BioXcell)] or anti-CD279 (PD-1) [RMP1-14 (BE0146, BioXcell)]. Antibodies were injected (i.p.) 3 - 5 times (every 3 days starting from the indicated date). […] To deplete NK or CD8+ cells, mice were treated with anti-NK1.1 antibody [PK136 (BE0036, BioXcell)] or anti-CD8 antibody [2.43(BE0061, BioXcell), respectively; controls were treated with 200 μtg IgG [rat IgG2b (BE0090, BioXcell)]. Antibodies were injected (i.p.) every 3 days starting one day prior to tumor cell inoculation. The efficiency of depletion was assessed using flow cytometry of blood samples collected at day 8 after tumor inoculation. To assess percent survival of animals, mice bearing tumors exceeding 2,000 mm^3 were defined as “dead”. Gene set enrichment (GSEA) and Ingenuity Pathway (IPA) analyses
(§1) Statistical analyses were performed using Prism software (version 7.00, GraphPad). For comparison of means of two groups with normal (or approximately normal) distributions, an un-paired t-test was applied. To compare means between >2 groups, one-way analysis of variance (ANOVA) was used with multiple comparison corrections (Dunnett's or Tukey's test). For animal experiments, two-way ANOVA (time and treatment) was used with Tukey's multiple comparison test. For Kaplan-Meier plots to compare overall survival, a log-rank test was used to determine significance of differences between groups. To evaluate response to therapy in a mouse model, Fisher's exact test (version 7.00, GraphPad) was used. For that analysis, a tumor with volume <50% of control tumors was defined as “responding to treatment”. For all analyses, a difference with p<0.05 was considered significant, unless specified.

For test [5], the system named is B16F10 cells. Nature of the test: B16F10 syngeneic melanoma tumor model in C57BL/6 mice (tumor volume, response, survival, immune phenotyping). The class given is in vivo, mouse. The settings on record: for Non-responder / Responder: number of mice. How it is done: Animal experiments. All animal experiments were conducted with approval of the Institutional Animal Care and Use Committee of Sanford Burnham Prebys Medical Discovery Institute (AUF#18-044). The murine melanoma lines B16F10, YUMM1.7 , and YUMMER1.7 were injected subcutaneously (2.0×10^5 cells of B16F10 or YUMM1.7; 4.0 ×10^5 cells of YUMMER1.7) into the lower right flank of 6-8-week-old male C57BL/6 (B16F10, YUMM1.7, YUMMER1.7) or Nod-Scid-Gamma (NSG) (B16F10, YUMMER1.7) mice. To induce transduced inducible shPRMT5, doxycycline (10 mg/ml, Fisher Bioreagents) was prepared in methylcellulose solution (0.5% hydroxylmethylcellulose, 0.2% Tween80) and administered to mice (0.2 ml, oral gavage, QD)Tumor sizes were monitored using calipers. At indicated time points, tumors were collected, 21 weighed and assessed for immune phenotypes using flow cytometry or immunofluorescence. To assess efficacy of immune checkpoint antibodies, mice were grafted with B16F10 or YUMM1.7 (2.0×10^5 cells, s.c.) cells and treated with 200 μg control IgG [rat IgG2a; BE0089 (BioXcell)], anti-CD152 (CTLA-4) [9H10 (BE0131, BioXcell)] or anti-CD279 (PD-1) [RMP1-14 (BE0146, BioXcell)]. Antibodies were injected (i.p.) 3 - 5 times (every 3 days starting from the indicated date). […] Antibodies were injected (i.p.) every 3 days starting one day prior to tumor cell inoculation. The efficiency of depletion was assessed using flow cytometry of blood samples collected at day 8 after tumor inoculation. To assess percent survival of animals, mice bearing tumors exceeding 2,000 mm^3 were defined as “dead”. Gene set enrichment (GSEA) and Ingenuity Pathway (IPA) analyses
as §1
For immune phenotyping, B16F10 tumors were collected and processed by chopping and mincing using a tube-secured cell strainer (70 p.m poresize, Falcon) to prepare single cells for flow cytometry. YUMMER1.7 cells were processed by chopping, following incubation in Collargenase D solution [0.1% (w/v) Collagenase D, 0.5% (w/v) BSA, 100 μg/ml DNase in PBS] for 1 hr at 30° C. and mincing using cells strainer. […] All antibodies were from Biolegend. Stained cells were fixed in 1% formaldehyde (Sigma) in PBS (pH7.4) for 15 min at 4° C. and analyzed with BD LSRFortessa (BD Biosciences) flow cytometry. For intranuclear staining of FoxP3, cells were fixed and permearbilized using a FoxP3/Transcription factor Fixation/Permearbilization kit (ThermoFisher Scientific). […] Cells were stained with antibody cocktail for surface markers [CD45.2, CD4, and CD8] and followed by staining with intraceullar cytokine antibodies [IFN gamma (APC), TNF alpha(FITC) and IL-2(PE)]. The number of specific immune cells per gram of tumor was calculated based on the percentage of specified immune cells identified in FACS (relative to the total number of tumors cells) per tumor weight. […] Cells were fixed and analyzed as above. To assess effects efficiency of in vivo depletion of CD8 T or NK cells, immune cells were isolated from mouse blood and RBCs were lysed using hypotonic buffer [15 mM NH4C1, 10 mM KHCO3, 0.1mM Na2EDTA] for 1 hr at 4° C.

For test [6], the system named is RIG-I/TLR3. Briefly: dsRNA poly(I:C)-induced type I interferon response in B16 cells (qPCR). The settings on record: B16 melanoma cells, poly(I:C) 250 ng/ml 6 hr (FIG. 12J). The class given is cell-based, mouse.
[7] abbreviates: FIG. 17F: YUMM1.7 in C57BL/6, PRMT5i from day 7, anti-PD-1 days 8, 11, 14, 17.
Setting [8] is: FIG. 17G: YUMM1.7 in C57BL/6, anti-CD8 200 μg/mouse every three days, PRMT5i from day 8, anti-PD-1 days 9, 12, 15, 18.
[9] abbreviates: FIG. 17E: B16 in C57BL/6, PRMT5i GSK3326595 40 mg/kg from day 10, anti-PD-1 200 μg/mouse days 11, 14, 17, responder = tumor volume <50% of control.
Setting [10] is: FIG. 18C: B16F10 in syngeneic mice, PRMT5i GSK3326595 40 mg/kg QD from day 6, anti-PD1 days 8, 11, 14, 17.

Take `O=C(NC[C@H](O)CN1CCc2ccccc2C1)c1cc(NC2COC2)ncn1` [EPZ015666]: in test [1] (B16 cells treated 24 hr, then V70mer dsDNA 500 ng/ml 6 h, qPCR (FIG. 11B)), the “expression of Ifnb1, Cc15 and Cxcl10” value was “increased”. Moreover, the TBK1-IRF3 signaling result in test [1] (B16 melanoma, V70mer 1.5 μg/ml, western blot (FIG. 11G)) is reported as “activated TBK1-IRF3 signaling”. The “decrease in IFI16 methylation” value in test [2] (A375 melanoma cells, EPZ015666 10 μM (FIG. 8E)) turned out to be 50%; in test [2] (WM115 cells (MTAP-deleted), EPZ015666 10 μM (FIG. 10D)), 15%. Also, the “degree of interaction between IFI16 and SHARPIN” value in test [2] (A375 melanoma cells, EPZ015666 10 μM (FIG. 10C)) is reported as “enhanced”. Moreover, in test [3] (EPZ015666 10 μM (FIG. 8D)), the “IFI204 interaction with SHARPIN” value is listed as “stronger interaction with SHARPIN”. In test [3] (EPZ015666 10 μM (FIG. 8F)), the “reduced IFI204 methylation” value is given as 57%.

Take `CC(=O)N1CCC(Nc2cc(C(=O)NC[C@H](O)CN3CCc4ccccc4C3)ncn2)CC1` [GSK3326595]: the “Response rate (%)” value in test [4] (setting [7]) turned out to be 28.6%; in test [4] (FIG. 17G: YUMM1.7 in C57BL/6, anti-CD8 depletion, PRMT5i from day 8, anti-PD-1 days 9, 12, 15, 18) it was 14.3%; in test [5] (FIG. 17E: B16 in C57BL/6, PRMT5i from day 10, anti-PD-1 days 11, 14, 17, percent of responders in group), 14.3%; in test [5] (FIG. 18C: B16F10, PRMT5i 40 mg/kg QD from day 6, anti-PD1 days 8, 11, 14, 17) it was 66.7%. Besides, the Non-responder in test [4] (setting [7]) is reported as 5; in test [4] (setting [8]), 6; in test [5] (setting [9]), 6; in test [5] (setting [10]), 2. For the same compound, the Responder in test [4] (setting [7]) amounted to 2; in test [4] (setting [8]), 1; in test [5] (setting [9]), 1; in test [5] (setting [10]), 4. Further, the “immune cell infiltration or activation in tumors” value in test [5] (B16F10, PRMT5i monotherapy 40 mg/kg QD from day 8, tumors day 15, flow cytometry (FIGS. 18E-G)) was “notable changes were not observed”. In test [5] (B16 and YUMM1.7 models, FIGS. 17E-F, 18C-D, table 5), the “response rate across experiments” value was 14.3˜66.7%.

With poly(I:C), the “Ifnb1 and chemokine expression” value in test [6] is recorded as “induced”.
